One test deals with T1, F508del (Homo sapiens, UniProt P13569, DEL508-508).
T1 construct: expressed in transfected cells
T1 sequence (P13569 with tags, fused parts or gaps DEL508-508): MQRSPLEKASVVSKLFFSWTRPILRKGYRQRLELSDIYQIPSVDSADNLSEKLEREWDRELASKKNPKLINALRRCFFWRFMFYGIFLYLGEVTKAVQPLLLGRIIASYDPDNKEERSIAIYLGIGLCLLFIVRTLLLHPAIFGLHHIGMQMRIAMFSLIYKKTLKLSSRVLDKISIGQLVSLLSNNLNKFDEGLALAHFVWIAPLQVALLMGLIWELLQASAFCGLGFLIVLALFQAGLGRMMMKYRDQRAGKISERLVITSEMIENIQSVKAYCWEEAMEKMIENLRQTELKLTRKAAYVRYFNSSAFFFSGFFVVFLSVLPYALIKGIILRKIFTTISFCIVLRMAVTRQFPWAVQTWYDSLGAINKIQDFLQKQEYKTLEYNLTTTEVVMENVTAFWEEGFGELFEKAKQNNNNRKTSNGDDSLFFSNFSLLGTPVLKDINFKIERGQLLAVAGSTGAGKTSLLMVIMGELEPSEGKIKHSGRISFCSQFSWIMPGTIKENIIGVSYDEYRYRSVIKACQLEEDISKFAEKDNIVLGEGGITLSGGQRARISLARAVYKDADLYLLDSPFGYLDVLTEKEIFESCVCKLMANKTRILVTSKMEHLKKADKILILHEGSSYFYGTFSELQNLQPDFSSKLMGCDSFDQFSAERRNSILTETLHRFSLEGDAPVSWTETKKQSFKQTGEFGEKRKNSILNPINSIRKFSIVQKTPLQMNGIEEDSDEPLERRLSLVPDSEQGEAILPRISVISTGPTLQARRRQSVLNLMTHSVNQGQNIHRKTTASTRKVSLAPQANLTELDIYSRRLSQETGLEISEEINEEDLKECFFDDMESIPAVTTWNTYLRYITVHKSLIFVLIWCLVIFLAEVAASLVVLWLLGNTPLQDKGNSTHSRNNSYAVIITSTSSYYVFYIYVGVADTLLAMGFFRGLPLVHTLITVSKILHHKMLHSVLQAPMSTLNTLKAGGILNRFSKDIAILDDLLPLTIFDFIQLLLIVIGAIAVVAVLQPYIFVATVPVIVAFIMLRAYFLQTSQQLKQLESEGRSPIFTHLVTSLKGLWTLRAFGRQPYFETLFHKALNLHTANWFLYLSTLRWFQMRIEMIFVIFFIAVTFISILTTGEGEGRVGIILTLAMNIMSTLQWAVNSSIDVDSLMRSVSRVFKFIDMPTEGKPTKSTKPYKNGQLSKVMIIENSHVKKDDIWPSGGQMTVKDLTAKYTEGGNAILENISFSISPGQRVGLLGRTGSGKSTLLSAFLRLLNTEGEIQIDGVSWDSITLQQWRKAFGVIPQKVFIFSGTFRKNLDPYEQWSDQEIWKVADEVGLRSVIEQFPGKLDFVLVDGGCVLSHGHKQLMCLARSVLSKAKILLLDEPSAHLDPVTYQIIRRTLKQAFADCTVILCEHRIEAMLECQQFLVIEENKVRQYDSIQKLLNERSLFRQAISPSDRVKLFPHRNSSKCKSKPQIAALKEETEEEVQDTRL
The test is described as follows: Protocol 2: FRET membrane potential optical assay (VIPR), identification of correction compounds. Particulars: F508del CFTR modulator activity; compounds of Table 1; read-out: EC30. The test is classed as cell-based. The procedure, abridged: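 Corrector readout: membrane-potential FRET (CC2-DMPE donor, DiSBAC2(3) acceptor) on VIPR II after Cl⁻-free gluconate bath with 10 μM forskolin and 20 μM genistein. Before this, F508del-expressing NIH3T3 cells were exposed to test compound for 16 h at 37 °C without serum; 27 °C incubation served as temperature-correction control.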
As usually defined, the EC30 is the point of the concentration-response curve where the effect stands at 30%. In the case of `COc1ccc(OC)c(-c2ccc(C(=O)NS(=O)(=O)c3cccnc3N)c(N3C[C@@H](C)CC3(C)C)n2)c1` [Compound 2195, N-[(2-amino-3-pyridyl)sulfonyl]-6-(2,5-dimethoxyphenyl)-2-[(4S)-2,2,4-trimethylpyrrolidin-1-yl]pyridine-3-carboxamide], the EC30 is under 3 µM. For `Cc1cccc(-c2ccc(C(=O)NS(=O)(=O)c3cccc(N)n3)c(N3C[C@@H](C)CC3(C)C)n2)c1C` [Compound 2287, N-[(6-amino-2-pyridyl)sulfonyl]-6-(2,3-dimethylphenyl)-2-[(4S)-2,2,4-trimethylpyrrolidin-1-yl]pyridine-3-carboxamide], the EC30 is under 3 µM.

As to `CC1CN(c2ncccc2C(=O)NS(=O)(=O)c2cccc(OCc3ccoc3)n2)C(C)(C)C1` (centres unmarked) [Compound 2507, N—[[6-(3-furylmethoxy)-2-pyridyl]sulfonyl]-2-(2,2,4-trimethylpyrrolidin-1-yl)pyridine-3-carboxamide], the concentration for an effect of 30% (EC30) is under 3 µM.

In the case of `CC1CN(c2ncccc2C(=O)NS(=O)(=O)c2cccc(Nc3cc(F)cc(F)c3)n2)C(C)(C)C1` (centres unmarked) [Compound 2282, N—[[6-(3,5-difluoroanilino)-2-pyridyl]sulfonyl]-2-(2,2,4-trimethylpyrrolidin-1-yl)pyridine-3-carboxamide], the EC30 is under 3 µM. On the same count and under the same terms, then `Cc1cc(O)ccc1-c1ccc(C(=O)NS(=O)(=O)c2cccnc2N)c(N2C[C@@H](C)CC2(C)C)n1` [Compound 1999, N-[(2-amino-3-pyridyl)sulfonyl]-6-(4-hydroxy-2-methyl-phenyl)-2-[(4S)-2,2,4-trimethylpyrrolidin-1-yl]pyridine-3-carboxamide], with 3 to 10 µM. For `Cc1nc2cc(Nc3cccc(S(=O)(=O)NC(=O)c4cccnc4N4CC(C)CC4(C)C)n3)ccc2s1` (centres unmarked) [Compound 2198, N—[[6-[(2-methyl-1,3-benzothiazol-5-yl)amino]-2-pyridyl]sulfonyl]-2-(2,2,4-trimethylpyrrolidin-1-yl)pyridine-3-carboxamide], the EC30 was under 3 µM. Same read-out and setting: to `Cc1ccc(O)c(-c2ccc(C(=O)NS(=O)(=O)c3cccnc3N)c(N3C[C@@H](C)CC3(C)C)n2)c1` [Compound 2426, N-[(2-amino-3-pyridyl)sulfonyl]-6-(2-hydroxy-5-methyl-phenyl)-2-[(4S)-2,2,4-trimethylpyrrolidin-1-yl]pyridine-3-carboxamide] belongs under 3 µM; to `C#Cc1ccc(COc2cccc(S(=O)(=O)NC(=O)c3cccnc3N3CC(C)CC3(C)C)n2)cc1` (centres unmarked) [Compound 2610, N—[[6-[(4-ethynylphenyl)methoxy]-2-pyridyl]sulfonyl]-2-(2,2,4-trimethylpyrrolidin-1-yl)pyridine-3-carboxamide], under 3 µM; to `CC1CN(c2ncc(/C=C/c3ccc(C(F)(F)F)cc3)cc2C(=O)NS(=O)(=O)c2cccc(N)n2)C(C)(C)C1` (centres unmarked) [Compound 2014, N-[(6-amino-2-pyridyl)sulfonyl]-5-[(E)-2-[4-(trifluoromethyl)phenyl]vinyl]-2-(2,2,4-trimethylpyrrolidin-1-yl)pyridine-3-carboxamide], under 3 µM. In the case of `CC1CN(c2nc(-n3ccc(OCC(C)(C)C)n3)ccc2C(=O)NS(=O)(=O)c2cccnc2N)C2(CCC2)C1` (single isomer, unassigned) [Compound 2358, N-[(2-amino-3-pyridyl)sulfonyl]-6-[3-(2,2-dimethylpropoxy)pyrazol-1-yl]-2-[6-methyl-8-azaspiro[3.4]octan-8-yl]pyridine-3-carboxamide], the EC30 was under 3 µM. Still for that read-out and setting: to `CC1CN(c2ncccc2C(=O)NS(=O)(=O)c2cccc(Oc3cccc(C#N)c3)n2)C(C)(C)C1` (centres unmarked) [Compound 2725] belongs under 3 µM; to `CCOc1cc(F)cc(-c2ccc(C(=O)NS(=O)(=O)c3ccc[nH]c3=O)c(N3C[C@@H](C)CC3(C)C)n2)c1` [Compound 2278, 6-(3-ethoxy-5-fluoro-phenyl)-N-[(2-oxo-1H-pyridin-3-yl)sulfonyl]-2-[(4S)-2,2,4-trimethylpyrrolidin-1-yl]pyridine-3-carboxamide], under 3 µM. On the same count and under the same terms, to `COc1ncc(-c2ccc(C(=O)NS(=O)(=O)c3cccnc3N)c(N3C[C@@H](C)CC3(C)C)n2)cc1C` [Compound 2564, N-[(2-amino-3-pyridyl)sulfonyl]-6-(6-methoxy-5-methyl-3-pyridyl)-2-[(4S)-2,2,4-trimethylpyrrolidin-1-yl]pyridine-3-carboxamide] belongs under 3 µM.

The test is the same for the next values; noted with them: Table 3; compounds of Table 1 as modulators of CFTR activity; protocol not stated.
Take `Cc1cc(C)c(Oc2nc(C(C)(C)C)ccc2C(=O)NS(=O)(=O)c2ccccc2O)c(C)c1` [Compound 131, 6-tert-butyl-N-(2-hydroxyphenyl)sulfonyl-2-(2,4,6-trimethylphenoxy)pyridine-3-carboxamide]: the EC30 result is given as “+++ (“+++” means <3 uM)”. For `Cc1cc(C)c(Oc2nc(-c3ccoc3)ccc2C(=O)NS(=O)(=O)c2cccc(N)n2)c(C)c1` [Compound 284, N-[(6-amino-2-pyridyl)sulfonyl]-6-(3-furyl)-2-(2,4,6-trimethylphenoxy)pyridine-3-carboxamide], the EC30 result is recorded as “+++ (“+++” means <3 uM)”. The same measure, in the same setting: then `CCOc1cc(F)cc(-c2ccc(C(=O)NS(=O)(=O)c3ccn[nH]3)c(N3[C@H](C)CC[C@@H]3C)n2)c1` [Compound 382, 2-[(2R,5S)-2,5-dimethylpyrrolidin-1-yl]-6-(3-ethoxy-5-fluoro-phenyl)-N-(1H-pyrazol-5-ylsulfonyl)pyridine-3-carboxamide], with “+++ (“+++” means <3 uM)”; and `Cc1ccc(-c2nc(C(C)(C)C)ccc2C(=O)NS(=O)(=O)c2ccccc2C#N)cc1` [Compound 623, 6-tert-butyl-N-(2-cyanophenyl)sulfonyl-2-(p-tolyl)pyridine-3-carboxamide], with “++ (“++” means between 3 uM and 10 uM)”. Same read-out and setting: then `CC(C)Oc1ccc(-c2ccc(C(=O)NS(=O)(=O)c3cccc(N)n3)c(NC(C)c3ccccc3)n2)cn1` (centres unmarked) [Compound 766, N-[(6-amino-2-pyridyl)sulfonyl]-6-(6-isopropoxy-3-pyridyl)-2-(1-phenylethylamino)pyridine-3-carboxamide], with “++ (“++” means between 3 uM and 10 uM)”; and `CC(C)Oc1ccc(-c2ccc(C(=O)NS(=O)(=O)c3cccc(N)n3)c(N3C[C@@H]4CC[C@H]3C4)n2)cn1` [Compound 476, N-[(6-amino-2-pyridyl)sulfonyl]-2-[(1R,4S)-3-azabicyclo[2.2.1]heptan-3-yl]-6-(6-isopropoxy-3-pyridyl)pyridine-3-carboxamide], with “++ (“++” means between 3 uM and 10 uM)”. In the case of `Cc1cc(C)c(Oc2nc(C(C)(C)C)ccc2C(=O)NS(=O)(=O)c2ccnc(N)c2)c(C)c1` [Compound 283, N-[(2-amino-4-pyridyl)sulfonyl]-6-tert-butyl-2-(2,4,6-trimethylphenoxy)pyridine-3-carboxamide], the EC30 result is recorded as “+++ (“+++” means <3 uM)”.

Take `Cc1cc(C)c(C)c(Cn2nc(C(C)(C)C)cc2C(=O)NS(=O)(=O)c2cccc(N)c2)c1C` [Compound 317, N-(3-aminophenyl)sulfonyl-5-tert-butyl-2-[(2,3,5,6-tetramethylphenyl)methyl]pyrazole-3-carboxamide]: the EC30 entry is “+++ (“+++” means <3 uM)”. Still for that read-out and setting: then `Cc1cccc(C)c1Cn1nc(-c2ccccc2C(F)(F)F)cc1C(=O)NS(=O)(=O)c1ccccc1` [Compound 369, N-(benzenesulfonyl)-2-[(2,6-dimethylphenyl)methyl]-5-[2-(trifluoromethyl)phenyl]pyrazole-3-carboxamide], with “+++ (“+++” means <3 uM)”; and `Cc1cc(C)c(Oc2nc(-c3cccc4c3ccn4C)ccc2C(=O)NS(=O)(=O)c2cccc(N)n2)c(C)c1` [Compound 386, N-[(6-amino-2-pyridyl)sulfonyl]-6-(1-methylindol-4-yl)-2-(2,4,6-trimethylphenoxy)pyridine-3-carboxamide], with “+++ (“+++” means <3 uM)”; and `Cc1cc(C)c(Oc2nc(-c3ccccc3)ccc2C(=O)NS(=O)(=O)c2cccc(NCCO)n2)c(C)c1` [Compound 595, N-[[6-(2-hydroxyethylamino)-2-pyridyl]sulfonyl]-6-phenyl-2-(2,4,6-trimethylphenoxy)pyridine-3-carboxamide], with “+++ (“+++” means <3 uM)”.

Regarding `Cc1cc(C)c(CN2Cc3ccccc3C2C(=O)NS(=O)(=O)c2cccc(=O)[nH]2)c(C)c1` (centres unmarked) [Compound 319, N-[(6-oxo-1H-pyridin-2-yl)sulfonyl]-2-[(2,4,6-trimethylphenyl)methyl]isoindoline-1-carboxamide], the EC30 entry is “++ (“++” means between 3 uM and 10 uM)”. Same read-out and setting: then `COc1cccc(Oc2nc(C(C)(C)C)ccc2C(=O)NS(=O)(=O)c2ccccc2)c1` [Compound 101, N-(benzenesulfonyl)-6-tert-butyl-2-(3-methoxyphenoxy)pyridine-3-carboxamide], with “+++ (“+++” means <3 uM)”; and `Cc1cc(C)c(Cn2c(C(=O)NS(=O)(=O)c3cccc(N)c3)cc3cc(Cl)ccc32)c(C)c1` [Compound 344, N-(3-aminophenyl)sulfonyl-5-chloro-1-[(2,4,6-trimethylphenyl)methyl]indole-2-carboxamide], with “+++ (“+++” means <3 uM)”; and `CC(C)COc1cc(F)cc(-c2ccc(C(=O)NS(=O)(=O)c3cccc(N)n3)c(N3CCC(C(C)(C)C)C3)n2)c1` (centres unmarked) [Compound 611, N-[(6-amino-2-pyridyl)sulfonyl]-2-(3-tert-butylpyrrolidin-1-yl)-6-(3-fluoro-5-isobutoxy-phenyl)pyridine-3-carboxamide], with “+++ (“+++” means <3 uM)”. As for `CC(C)COc1cc(F)cc(-c2ccc(C(=O)NS(=O)(=O)c3cccc(N)n3)c(N3CCCC34CCOC4)n2)c1` (centres unmarked) [Compound 424, N-[(6-amino-2-pyridyl)sulfonyl]-6-(3-fluoro-5-isobutoxy-phenyl)-2-(8-oxa-4-azaspiro[4.4]nonan-4-yl)pyridine-3-carboxamide], the EC30 entry is on record as “+++ (“+++” means <3 uM)”.

Source of the values: US10758534B2 (Vertex Pharmaceuticals Incorporated, priority 2014, dated 2020).
